From PubChem BioAssay AID1963984 (Molecular Pharmacology Branch, DTP, NCI, 2024)

System: 233499-124-R-J3-PDC spheroids with HUVEC/MSC, viability
Experiment: Anticancer human tumor 233499-124-R-J3-PDC patient-derived colon adenocarcinoma cell line growth inhibition [PI3K]
Details: for IC50: curve of first compound; for viability, T/C: stronger effect = lower value
Description: Combinatorial screen of targeted agents with the PI3K inhibitors inavolisib, alpelisib, duvelisib, and copanlisib in multi-cell type tumor spheroids
A high-throughput screen of multi-cell type tumor spheroids was designed to identify active combinations of targeted small molecules and PI3K pathway inhibitors. Complex spheroids include a stromal component modeled by human endothelial cells (HUVEC) and fibroblasts modeled by human mesenchymal stem cells (MSCs). The concentration ranges selected for each drug and investigational agent were based upon clinically achievable concentrations if the clinical Cmax of the agent was known.
Compounds. The drugs and investigational agents: inavolisib (NSC800729), alpelisib (NSC765974), duvelisib (NSC772469), copanlisib (NSC816437), ipatasertib (NSC767898), afuresertib (NSC778305), talazoparib (NSC767125), sapanisertib (NSC764658), selumetinib (NSC741078), tovorafenib (DAY101, NSC766906), vemurafenib (NSC761431), ravoxertinib (NSC781343), sotorasib (NSC818433), MRTX1133 (NSC 836407), abemaciclib (NSC 768073), palbociclib (NSC758247), venetoclax (NSC 766270), SY5609 (NSC837396), enzalutamide (NSC755605), and darolutamide (NSC825331), were obtained from the National Cancer Institute (NCI) Developmental Therapeutics Program Chemical Repository. The FDA-approved anticancer drug set is available from the NCI Developmental Therapeutics Program. […] The stock solutions were prepared in dimethyl sulfoxide (DMSO, Sigma-Aldrich, St. Louis, MO, cat. D2650) at 800-fold the tested concentration and stored at -70 degrees C prior to their use. All drugs and investigational agents were tested over a range starting from a high concentration at or near the clinical Cmax and decreasing in half-log increments. If the clinical Cmax for an agent had not been determined, the highest concentration tested was 10 microM.
Cell Culture. All cells were maintained in an incubator at 37 degrees C and 5% CO2 with 95% humidity. The PDC lines were cultured according to standard operating procedures established by the NCI PDMR (https://pdmr.cancer.gov/sops/default.htm). All PDCs were thawed and cultured in Matrigel-coated flasks prepared with a working solution of 1X Ham's F-12 nutrient mix, without supplementation (Invitrogen, Waltham, MA, cat. 11765054), 100 U/mL penicillin-streptomycin (Invitrogen, cat. 15140122), and 2.5% Matrigel (Corning Inc., Corning, NY, cat. 354248) for the first three passages. The 354836-022-R-J1-PDC, 475296-252-R-J1-PDC, and 997726-040-R-J2-PDC lines were cultured in 6A media, which includes advanced DMEM/F-12 (Thermo Fisher Scientific, cat. 12634028), 10 mM HEPES (Thermo Fisher Scientific, cat. 15630080), 1X GlutaMAX supplement (Thermo Fisher Scientific, cat. 35050061), 0.1 mg/mL primocin (InvivoGen, San Diego, CA, cat. ant-pm-2), 10% defined fetal bovine serum, heat inactivated (HyClone Laboratories Inc., Logan, UT, cat. SH30070.03HI), 50% L-WRN conditioned media (ATCC, cat. CRL-3276), 1.25 mM N-Acetyl-L-cysteine (Sigma-Aldrich, cat. A9165), 10 mM nicotinamide (Sigma-Aldrich, cat. N0636), 1X B-27 supplement (Thermo Fisher Scientific, cat. 17504044), 1X N-2 supplement (Thermo Fisher Scientific, cat. 17502048), and 10 microM Y-27632 dihydrochloride (Tocris Bioscience, Bristol, United Kingdom, cat. 1254). The 624824-186-R-J2-PDC line was cultured in 6C/Colon 1B media, which includes all 6A media components plus 50 ng/mL human EGF recombinant protein (Thermo Fisher Scientific, cat. PHG0311). […]

[1] = second compound 0.00316 µM, first compound 0.000316 µM
[2] = second compound 0.00316 µM, first compound 0.001 µM
[3] = second compound 0.00316 µM, first compound 0.00316 µM
[4] = second compound 0.00316 µM, first compound 0.01 µM
[5] = second compound 0.00316 µM, first compound 0.0316 µM
[6] = second compound 0.00316 µM, first compound 0.1 µM
[7] = second compound 0.01 µM, first compound 0.000316 µM
[8] = second compound 0.01 µM, first compound 0.001 µM
[9] = second compound 0.01 µM, first compound 0.00316 µM
[10] = second compound 0.01 µM, first compound 0.01 µM
[11] = second compound 0.01 µM, first compound 0.0316 µM
[12] = second compound 0.01 µM, first compound 0.1 µM
[13] = second compound 0.0316 µM, first compound 0.000316 µM
[14] = second compound 0.0316 µM, first compound 0.001 µM
[15] = second compound 0.0316 µM, first compound 0.00316 µM
[16] = second compound 0.0316 µM, first compound 0.01 µM
[17] = second compound 0.0316 µM, first compound 0.0316 µM
[18] = second compound 0.0316 µM, first compound 0.1 µM
[19] = second compound 0.1 µM, first compound 0.000316 µM
[20] = second compound 0.1 µM, first compound 0.001 µM
[21] = second compound 0.1 µM, first compound 0.00316 µM
[22] = second compound 0.1 µM, first compound 0.01 µM
[23] = second compound 0.1 µM, first compound 0.0316 µM
[24] = second compound 0.1 µM, first compound 0.1 µM
[25] = second compound 0.316 µM, first compound 0.000316 µM
[26] = second compound 0.316 µM, first compound 0.001 µM
[27] = second compound 0.316 µM, first compound 0.00316 µM
[28] = second compound 0.316 µM, first compound 0.01 µM
[29] = second compound 0.316 µM, first compound 0.0316 µM
[30] = second compound 0.316 µM, first compound 0.1 µM
[31] = second compound 1 µM, first compound 0.000316 µM
[32] = second compound 1 µM, first compound 0.001 µM
[33] = second compound 1 µM, first compound 0.00316 µM
[34] = second compound 1 µM, first compound 0.01 µM
[35] = second compound 1 µM, first compound 0.0316 µM
[36] = second compound 1 µM, first compound 0.1 µM
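Also: spheroids exposed to agents for seven days before readout.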
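For viability, T/C in this document: percent viability relative to DMSO vehicle control taken as 100%.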

SMILES: CC(=O)c1c(C)c2cnc(Nc3ccc(N4CCNCC4)cn3)nc2n(C2CCCC2)c1=O + CC(Nc1ccc2c(c1)OCCn1cc(N3C(=O)OCC3C(F)F)nc1-2)C(N)=O
- IC50 (second compound 0.00316 µM): > 100 nM
- IC50 (second compound 0.01 µM): > 100 nM
- IC50 (second compound 0.0316 µM): > 100 nM
- IC50 (second compound 0.1 µM): > 100 nM
- IC50 (second compound 0.316 µM): > 100 nM
- IC50 (second compound 1 µM): > 100 nM
- viability, T/C [1]: 97.3%
- viability, T/C [2]: 83.4%
- viability, T/C [3]: 95.7%
- viability, T/C [4]: 73.7%
- viability, T/C [5]: 87.8%
- viability, T/C [6]: 74.2%
- viability, T/C [7]: 86.4%
- viability, T/C [8]: 87.5%
- viability, T/C [9]: 80.9%
- viability, T/C [10]: 89.7%
- viability, T/C [11]: 86%
- viability, T/C [12]: 70.6%
- viability, T/C [13]: 88.8%
- viability, T/C [14]: 88.4%
- viability, T/C [15]: 76.7%
- viability, T/C [16]: 89%
- viability, T/C [17]: 93.2%
- viability, T/C [18]: 71.2%
- viability, T/C [19]: 82.6%
- viability, T/C [20]: 84.4%
- viability, T/C [21]: 81.2%
- viability, T/C [22]: 101%
- viability, T/C [23]: 90.2%
- viability, T/C [24]: 65.2%
- viability, T/C [25]: 83%
- viability, T/C [26]: 79.5%
- viability, T/C [27]: 76.9%
- viability, T/C [28]: 67.2%
- viability, T/C [29]: 79.3%
- viability, T/C [30]: 59.6%
- viability, T/C [31]: 76.7%
- viability, T/C [32]: 68.7%
- viability, T/C [33]: 50%
- viability, T/C [34]: 55.3%
- viability, T/C [35]: 60.1%
- viability, T/C [36]: 48.9%

SMILES: CC(C)n1nc(-c2ccc3oc(N)nc3c2)c2c(N)ncnc21 + CC(Nc1ccc2c(c1)OCCn1cc(N3C(=O)OCC3C(F)F)nc1-2)C(N)=O
- IC50 (second compound 0.00316 µM): > 100 nM
- IC50 (second compound 0.01 µM): > 100 nM
- IC50 (second compound 0.0316 µM): > 100 nM
- IC50 (second compound 0.1 µM): 53.3 nM
- IC50 (second compound 0.316 µM): 15.1 nM
- IC50 (second compound 1 µM): 3.69 nM
- viability, T/C [1]: 73.5%
- viability, T/C [2]: 90.1%
- viability, T/C [3]: 88%
- viability, T/C [4]: 95.7%
- viability, T/C [5]: 81%
- viability, T/C [6]: 50.2%
- viability, T/C [7]: 97.8%
- viability, T/C [8]: 92.7%
- viability, T/C [9]: 105%
- viability, T/C [10]: 89.4%
- viability, T/C [11]: 78.3%
- viability, T/C [12]: 57.5%
- viability, T/C [13]: 103%
- viability, T/C [14]: 83%
- viability, T/C [15]: 85.9%
- viability, T/C [16]: 70.3%
- viability, T/C [17]: 91%
- viability, T/C [18]: 60.8%
- viability, T/C [19]: 84%
- viability, T/C [20]: 61.3%
- viability, T/C [21]: 66%
- viability, T/C [22]: 77%
- viability, T/C [23]: 66.6%
- viability, T/C [24]: 29.1%
- viability, T/C [25]: 82.7%
- viability, T/C [26]: 49.3%
- viability, T/C [27]: 73.5%
- viability, T/C [28]: 46.6%
- viability, T/C [29]: 52.8%
- viability, T/C [30]: 24.2%
- viability, T/C [31]: 49.8%
- viability, T/C [32]: 48.4%
- viability, T/C [33]: 59.2%
- viability, T/C [34]: 41.2%
- viability, T/C [35]: 26.3%
- viability, T/C [36]: 12.3%

SMILES: CCCS(=O)(=O)Nc1ccc(F)c(C(=O)c2c[nH]c3ncc(-c4ccc(Cl)cc4)cc23)c1F + CC(Nc1ccc2c(c1)OCCn1cc(N3C(=O)OCC3C(F)F)nc1-2)C(N)=O
- IC50 (second compound 0.00316 µM): 5620 nM
- IC50 (second compound 0.01 µM): 5140 nM
- IC50 (second compound 0.0316 µM): 4720 nM
- IC50 (second compound 0.1 µM): 5020 nM
- IC50 (second compound 0.316 µM): 3380 nM
- IC50 (second compound 1 µM): 1790 nM
- viability, T/C [5]: 80%
- viability, T/C [6]: 97.9%
- viability, T/C (second compound 0.00316 µM, first compound 0.316 µM): 98.6%
- viability, T/C (second compound 0.00316 µM, first compound 1 µM): 105%
- viability, T/C (second compound 0.00316 µM, first compound 3.16 µM): 104%
- viability, T/C (second compound 0.00316 µM, first compound 10 µM): 2.87%
- viability, T/C [11]: 90.2%
- viability, T/C [12]: 94.5%
- viability, T/C (second compound 0.01 µM, first compound 0.316 µM): 97.1%
- viability, T/C (second compound 0.01 µM, first compound 1 µM): 98.2%
- viability, T/C (second compound 0.01 µM, first compound 3.16 µM): 84.9%
- viability, T/C (second compound 0.01 µM, first compound 10 µM): 2.03%
- viability, T/C [17]: 77.3%
- viability, T/C [18]: 90.3%
- viability, T/C (second compound 0.0316 µM, first compound 0.316 µM): 85.8%
- viability, T/C (second compound 0.0316 µM, first compound 1 µM): 101%
- viability, T/C (second compound 0.0316 µM, first compound 3.16 µM): 75.8%
- viability, T/C (second compound 0.0316 µM, first compound 10 µM): 1.54%
- viability, T/C [23]: 84.8%
- viability, T/C [24]: 83.9%
- viability, T/C (second compound 0.1 µM, first compound 0.316 µM): 88.5%
- viability, T/C (second compound 0.1 µM, first compound 1 µM): 88.3%
- viability, T/C (second compound 0.1 µM, first compound 3.16 µM): 82.8%
- viability, T/C (second compound 0.1 µM, first compound 10 µM): 0.93%
- viability, T/C [29]: 86.6%
- viability, T/C [30]: 66.6%
- viability, T/C (second compound 0.316 µM, first compound 0.316 µM): 66.9%
- viability, T/C (second compound 0.316 µM, first compound 1 µM): 69.2%
- viability, T/C (second compound 0.316 µM, first compound 3.16 µM): 54.5%
- viability, T/C (second compound 0.316 µM, first compound 10 µM): 4.16%
- viability, T/C [35]: 73%
- viability, T/C [36]: 45.4%
- viability, T/C (second compound 1 µM, first compound 0.316 µM): 54.9%
- viability, T/C (second compound 1 µM, first compound 1 µM): 61%
- viability, T/C (second compound 1 µM, first compound 3.16 µM): 41.8%
- viability, T/C (second compound 1 µM, first compound 10 µM): 2.26%
